Laboratory results from the CheMixHub viscosity set.
Values joined by “and” are separate entries in the source; they are usually repeats but may differ in a detail not shown here. Equal values may be shown once. ± gives the uncertainty stated by the source.

Test: xn = mol fraction of the nth substance listed

CN(C)C=O + O
Settings | viscosity
303.15 K, 101 kPa, x2 = 0.9 | 1.519 ± 0.01 mPa·s and 1.516 ± 0.02 mPa·s
303.15 K, 101 kPa, x2 = 0.94 | 1.24 ± 0.0083 mPa·s and 1.24 ± 0.017 mPa·s
303.15 K, 101 kPa, x2 = 0.96 | 1.093 ± 0.0074 mPa·s and 1.091 ± 0.015 mPa·s
303.15 K, 101 kPa, x2 = 0.98 | 0.9451 ± 0.0065 mPa·s and 0.9453 ± 0.013 mPa·s
305.15 K, 101 kPa, x1 = 0.0254 | 1.107 ± 0.22 mPa·s
305.15 K, 101 kPa, x1 = 0.0555 | 1.335 ± 0.24 mPa·s
305.15 K, 101 kPa, x1 = 0.0915 | 1.61 ± 0.27 mPa·s
305.15 K, 101 kPa, x1 = 0.1355 | 1.795 ± 0.29 mPa·s
305.15 K, 101 kPa, x1 = 0.1904 | 2.021 ± 0.32 mPa·s
305.15 K, 101 kPa, x1 = 0.2608 | 2.238 ± 0.34 mPa·s
305.15 K, 101 kPa, x1 = 0.2921 | 2.27 ± 0.35 mPa·s
305.15 K, 101 kPa, x1 = 0.304 | 2.308 ± 0.35 mPa·s
305.15 K, 101 kPa, x1 = 0.3199 | 2.282 ± 0.35 mPa·s
305.15 K, 101 kPa, x1 = 0.3544 | 2.262 ± 0.35 mPa·s
305.15 K, 101 kPa, x1 = 0.4137 | 2.102 ± 0.33 mPa·s
305.15 K, 101 kPa, x1 = 0.4848 | 1.934 ± 0.31 mPa·s
305.15 K, 101 kPa, x1 = 0.5714 | 1.619 ± 0.27 mPa·s
305.15 K, 101 kPa, x1 = 0.6792 | 1.393 ± 0.25 mPa·s
305.15 K, 101 kPa, x1 = 0.8171 | 1.106 ± 0.22 mPa·s
308.15 K, 101 kPa, x1 = 0.0254 | 0.985 ± 0.2 mPa·s
308.15 K, 101 kPa, x1 = 0.027 | 0.9526 ± 0.0084 mPa·s
308.15 K, 101 kPa, x1 = 0.0555 | 1.164 ± 0.22 mPa·s
308.15 K, 101 kPa, x1 = 0.058 | 1.163 ± 0.0099 mPa·s
308.15 K, 101 kPa, x1 = 0.0915 | 1.428 ± 0.25 mPa·s
308.15 K, 101 kPa, x1 = 0.1355 | 1.583 ± 0.27 mPa·s
308.15 K, 101 kPa, x1 = 0.14 | 1.539 ± 0.014 mPa·s
308.15 K, 101 kPa, x1 = 0.1904 | 1.823 ± 0.3 mPa·s
308.15 K, 101 kPa, x1 = 0.2608 | 1.989 ± 0.32 mPa·s
308.15 K, 101 kPa, x1 = 0.2921 | 1.999 ± 0.32 mPa·s
308.15 K, 101 kPa, x1 = 0.304 | 2.044 ± 0.32 mPa·s
308.15 K, 101 kPa, x1 = 0.3199 | 1.976 ± 0.31 mPa·s
308.15 K, 101 kPa, x1 = 0.3544 | 1.985 ± 0.31 mPa·s
308.15 K, 101 kPa, x1 = 0.4137 | 1.872 ± 0.3 mPa·s
308.15 K, 101 kPa, x1 = 0.4848 | 1.685 ± 0.28 mPa·s
308.15 K, 101 kPa, x1 = 0.5714 | 1.424 ± 0.25 mPa·s
308.15 K, 101 kPa, x1 = 0.6792 | 1.245 ± 0.23 mPa·s
308.15 K, 101 kPa, x1 = 0.8171 | 1.029 ± 0.21 mPa·s
308.15 K, 101 kPa, x2 = 0.1 | 0.7874 ± 0.0054 mPa·s and 0.7848 ± 0.011 mPa·s
308.15 K, 101 kPa, x2 = 0.2 | 0.8915 ± 0.0061 mPa·s and 0.8893 ± 0.012 mPa·s
308.15 K, 101 kPa, x2 = 0.3 | 1.036 ± 0.007 mPa·s and 1.033 ± 0.014 mPa·s
308.15 K, 101 kPa, x2 = 0.4 | 1.226 ± 0.0082 mPa·s and 1.224 ± 0.016 mPa·s
308.15 K, 101 kPa, x2 = 0.5 | 1.468 ± 0.0098 mPa·s and 1.467 ± 0.019 mPa·s
308.15 K, 101 kPa, x2 = 0.6 | 1.707 ± 0.011 mPa·s and 1.702 ± 0.023 mPa·s
308.15 K, 101 kPa, x2 = 0.7 | 1.856 ± 0.012 mPa·s and 1.856 ± 0.025 mPa·s
308.15 K, 101 kPa, x2 = 0.8 | 1.759 ± 0.012 mPa·s and 1.757 ± 0.023 mPa·s
308.15 K, 101 kPa, x2 = 0.9 | 1.335 ± 0.0089 mPa·s and 1.335 ± 0.018 mPa·s
308.15 K, 101 kPa, x2 = 0.92 | 1.221 ± 0.0082 mPa·s and 1.22 ± 0.016 mPa·s
308.15 K, 101 kPa, x2 = 0.94 | 1.1 ± 0.0075 mPa·s and 1.1 ± 0.015 mPa·s
308.15 K, 101 kPa, x2 = 0.96 | 0.9743 ± 0.0067 mPa·s and 0.9712 ± 0.013 mPa·s
308.15 K, 101 kPa, x2 = 0.98 | 0.8498 ± 0.0059 mPa·s and 0.8476 ± 0.011 mPa·s
313.15 K, 101 kPa, x1 = 0.0254 | 0.856 ± 0.19 mPa·s
313.15 K, 101 kPa, x1 = 0.027 | 0.8698 ± 0.0078 mPa·s
313.15 K, 101 kPa, x1 = 0.0555 | 1.011 ± 0.21 mPa·s
313.15 K, 101 kPa, x1 = 0.058 | 1.067 ± 0.0094 mPa·s
313.15 K, 101 kPa, x1 = 0.0915 | 1.284 ± 0.24 mPa·s
313.15 K, 101 kPa, x1 = 0.1355 | 1.433 ± 0.25 mPa·s
313.15 K, 101 kPa, x1 = 0.14 | 1.392 ± 0.013 mPa·s
313.15 K, 101.33 kPa, x1 = 0.0217 | 0.7737 ± 0.026 mPa·s
313.15 K, 101.33 kPa, x1 = 0.0466 | 0.9108 ± 0.03 mPa·s
313.15 K, 101.33 kPa, x1 = 0.0989 | 1.188 ± 0.038 mPa·s
313.15 K, 101.33 kPa, x1 = 0.1478 | 1.404 ± 0.044 mPa·s
313.15 K, 101.33 kPa, x1 = 0.2481 | 1.713 ± 0.053 mPa·s
313.15 K, 101.33 kPa, x1 = 0.2859 | 1.729 ± 0.053 mPa·s
313.15 K, 101.33 kPa, x1 = 0.3728 | 1.586 ± 0.049 mPa·s
313.15 K, 101.33 kPa, x1 = 0.4919 | 1.351 ± 0.043 mPa·s
313.15 K, 101.33 kPa, x1 = 0.5936 | 1.177 ± 0.037 mPa·s
313.15 K, 101.33 kPa, x1 = 0.6889 | 1.005 ± 0.032 mPa·s
313.15 K, 101.33 kPa, x1 = 0.7991 | 0.8768 ± 0.029 mPa·s
313.15 K, 101.33 kPa, x1 = 0.8795 | 0.8096 ± 0.027 mPa·s
318.15 K, 101 kPa, x1 = 0.027 | 0.796 ± 0.0072 mPa·s
318.15 K, 101 kPa, x1 = 0.058 | 0.9746 ± 0.0086 mPa·s
318.15 K, 101 kPa, x1 = 0.14 | 1.24 ± 0.012 mPa·s
323.15 K, 101 kPa, x1 = 0.027 | 0.7318 ± 0.0067 mPa·s
323.15 K, 101 kPa, x1 = 0.058 | 0.8939 ± 0.0085 mPa·s
323.15 K, 101 kPa, x1 = 0.14 | 1.096 ± 0.015 mPa·s
